Experimental data as given in patent US20150050373A1, “HERBAL COMPOSITION FOR THE TREATMENT OF METABOLIC DISORDERS” (PIRAMAL ENTERPRISES LIMITED, priority 2012, published 2015).

What was measured:
[1] = biological target: T1, human DGAT-1 enzyme over expressed in Sf9 cell-line (Homo sapiens, UniProt O75907); assay: hDGAT-1 assay (inhibition of [14C]triglyceride formation by microsomes); type: biochemical
T1 construct: hDGAT-1 ORF expression clone (RZPD0839C09146 in pDEST vector) was obtained from RZPD, Germany; made in house; host or cells: Sf9 insect cells (baculovirus, Bac-to-Bac); microsomal fraction
T1 sequence (O75907 1-488): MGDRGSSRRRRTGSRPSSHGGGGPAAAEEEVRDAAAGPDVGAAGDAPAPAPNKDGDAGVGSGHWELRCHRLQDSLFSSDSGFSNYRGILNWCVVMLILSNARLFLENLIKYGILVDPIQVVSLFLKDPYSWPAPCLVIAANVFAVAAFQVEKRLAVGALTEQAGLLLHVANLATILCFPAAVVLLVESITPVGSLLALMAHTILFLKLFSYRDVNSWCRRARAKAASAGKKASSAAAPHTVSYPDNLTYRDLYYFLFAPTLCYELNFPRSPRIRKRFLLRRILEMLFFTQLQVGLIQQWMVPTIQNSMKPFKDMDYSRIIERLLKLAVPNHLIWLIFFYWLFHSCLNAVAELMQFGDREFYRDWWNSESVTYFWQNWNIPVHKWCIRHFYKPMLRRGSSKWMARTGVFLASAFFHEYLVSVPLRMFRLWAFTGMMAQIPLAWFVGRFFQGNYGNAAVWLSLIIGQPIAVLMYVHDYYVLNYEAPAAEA
Procedure: The DGAT-1 assay was designed using human DGAT-1 enzyme over expressed in Sf9 cell-line as described in the reference, European Journal of Pharmacology, 650, 663-672, (2011), the disclosure of which is incorporated by reference for the teaching of the assay.
hDGAT-1 Enzyme preparation: Enzyme was diluted to a working concentration of 1 mg/mL in hDGAT-1 assay buffer, 2.5 μL of the working enzyme stock was used in hDGAT-1 assay (final concentration 25 μg/mL).
The test samples were prepared as follows. A stock solution of 20 mg/mL was prepared for each extract (Extract of Example 1 to Extract of Example 7) in 100% dimethyl sulfoxide (DMSO). The working stock was prepared in hDGAT-1 assay buffer. […]
Three different concentrations for dose response (i.e. 25 μg/mL, 50 μ/mL and 100 μg/mL) were prepared for Extract of Example 1 by serial dilution of stock solution.
60 μL of substrate mix (as described above) was added to a total assay volume of 100 μL. The reaction was started by adding 2.5 μg hDGAT-1 containing microsomal protein and was incubated at 37° C. for 10 min. The reaction was stopped by adding 300 μL of alkaline ethanol stop solution mix (AESSM). The reaction involves the incorporation of radioactive [^14C] oleoyl-CoA into the third hydroxyl group (OH) of 1,2-dioleoyl-sn-glycerol to form the radioactive triglyceride ([^14C] triglyceride) which was then extracted into the upper heptane phase. The radioactive triglyceride product thus formed was separated into the organic phase by adding 600 μL of n-heptane. 250 μL of the upper heptane was added into 4 mL of scintillation fluid and measured using a liquid scintillation counter (Packard; 1600CA) as disintegration per min (dpm) counts. The percentage inhibition was calculated with respect to the vehicle. […]

[2] = test system: high fat diet (HFD) induced obesity model; assay: High fat diet (HFD)-induced body weight gain study in mice; type: in vivo; conditions: Mean ± S.E.M.
Procedure: A HFD induced body weight gain study in mice was conducted to evaluate the efficacy of the Extract of Example 1.
Male C57BL/6J mice (in-house; Central Animal Facility, Piramal Healthcare Limited, Goregaon, Mumbai, Maharashtra, India) were acclimatized with HFD (60% Kcal, D12492, Research Diets, USA) for two weeks.
A suspension of Extract of Example 1 was prepared in polyethyleneglycol 400 (30%) (PEG 400, Fisher Scientific, India) and 0.5% carboxy methylcellulose (70%) (CMC, Sigma, USA).
The Extract of Example 1 was administered at a dose of 500 mg/kg body-weight orally, once daily. Orlistat (Biocon, India) was used as the standard drug and was administered orally at a dose of 15 mg/kg body weight, twice daily. A separate group of ten mice was fed a low fat diet (LED, 10% kcal, D12450B, Research Diet, USA) as a normal control. Vehicle was administered to the HFD and LFD control groups at dose of 10 mL/kg body weight.
The treatments were continued for a period of sixty days. Body weight and feed intake were monitored daily. The % change in body weight (% increase in body weight from day 1) and the cumulative feed intake data was calculated. On day sixtyone, blood samples (˜200 μL/mice) were collected in heparinised (50 IU/mL) micro-centrifuge tubes under isoflurane anesthesia. Plasma was separated by centrifugation at 10000 rpm at 4° C. for estimation of various plasma biochemistry parameters. The biochemistry analysis was performed on BS-400 autoanalyzer (Mindray, China). Subsequently, the mice were sacrificed and following organs/tissues were dissected out and weighed viz., liver, heart, kidneys, epididymal fat and retroperitoneal fat. All the data was analyzed for statistical significance by one-way ANOVA followed by Dunnet's post-hoc test and values of P<0.05 were considered as significant. All analyses were carried out using GraphPad Prism version 4.00 for Windows (GraphPad Software, San Diego, Calif., USA).

[3] = HFD-fed mice after 60 days treatment, Extract 500 mg/kg once daily, Orlistat 15 mg/kg twice daily, oral
[4] = HFD-fed mice, Day 60, Extract 500 mg/kg orally once daily, Orlistat 15 mg/kg orally twice daily

Row | % inhibition of hDGAT-1 ([1]; Table 1, 20 nM) [%] | % inhibition of hDGAT-1 ([1]; Table 1, 0.1 μM) [%] | % inhibition of hDGAT-1 ([1]; Table 2, 20 nM) [%] | % inhibition of hDGAT-1 ([1]; Table 2, 0.1 μM) [%] | SMILES | Body Weight (g) (Day 0) ([2]; HFD-fed male C57BL/6J mice, baseline Day 0) | Epididymal Fat [2, 3] [g] | Retroperitoneal Fat [2, 3] [g] | % Change in body weight ([2]; HFD-fed mice, % increase in body weight from day 1, 60 days, Extract 500 mg/kg orally once daily, Orlistat 15 mg/kg orally twice daily) [%] | Body Weight (g) (Day 60) [2, 4] | Cumulative Feed intake (g/mice) (Day 60) [2, 4] | Total Fat ([2]; Total fat = Epididymal fat + Retroperitoneal fat, HFD-fed mice after 60 days treatment) [g]
1 | 46.27 | 66.04 | 48.82 | 74.26 | CC1(C)Oc2ncncc2N=C1c1ccc([C@H]2CC[C@@H](CC(=O)O)CC2)cc1 [IN5530, 2-((1s,4s)-4-(4-(7,7-dimethyl-7H-pyrimido [4,5-b][1,4]oxazin-6-yl)phenyl)cyclohexyl)acetic acid] |  |  |  |  |  |  | 
2 |  |  |  |  | CCCCCCCCCCC[C@@H](C[C@@H]1OC(=O)[C@H]1CCCCCC)OC(=O)[C@H](CC(C)C)NC=O [Orlistat] | 26.4 ± 0.4 | 1.07 ± 0.10 | 0.42 ± 0.05 | 16.74 ± 2.70 | 30.9 ± 0.9 | 119.7 ± 4.7 | 1.49 ± 0.15
